Data taken from patent US20170107235A1, “PYRROLOBENZ[…] FOR TREATING LYMPHOMA” (ADC PRODUCTS (UK) LIMITED, priority 2014, published 2017).
Values joined by “and” are separate entries in the source; they are usually repeats but may differ in a detail not shown here. Equal values may be shown once.

System: dogs with spontaneous malignancies (lymphoma)
Assay: Phase Ia clinical trial of SG2000 in dogs with spontaneous malignancies (lymphoma patients)
Assay type: in vivo
Set-up: key to Response during first cycle / Response to SG2000: Complete response (CR) is defined as the disappearance of all target lesions; Partial response (PR) is defined as a >30% decrease in the sum of the longest dimensions of the target lesions; Progressive disease (PD) is defined as a >20% increase in the sum of the longest dimensions of the target lesions; Stable Disease (SD) is defined as neither sufficient shrinkage to qualify for PR nor sufficient increase to qualify for PD
Procedure: A Phase Ia clinical trial in dogs with spontaneous malignancies was undertaken at the Royal Veterinary College, University of London, UK.
was supplied in 5 mL vials, wherein each mL contains 10 micrograms of SG2000 and 47.1 mg of dimethylacetamide. For doses below 100 microgram, the required volume of SG2000 was diluted to 10 ml with normal saline (0.9% sodium chloride) prior to administration. If the total dose exceeds 100 micrograms, the supplied solution was used without prior dilution with normal saline.
SG2000 was administered as a slow intravenous infusion into a peripheral vein. The drug was be administered slowly IV over 20 minutes via a peripheral vein catheter. If the drug has been diluted to a total volume of 10 ml, this will mean injecting 0.5 ml per minute.
The following concomitant/supportive medications permitted during the trial were:
The following definitions are used in reporting the results:
Complete response (CR) is defined as the disappearance of all target lesions.
Partial response (PR) is defined as a >30% decrease in the sum of the longest dimensions of the target lesions, taking as a reference the baseline sum longest dimensions.
Progressive disease (PD) is defined as a >20% increase in the sum of the longest dimensions of the target lesions, taking as a reference the smallest sum of the longest dimensions recorded since the treatment started, or the appearance of 1 or more new lesions.
Stable Disease (SD) is defined as neither sufficient shrinkage to qualify for PR nor sufficient increase to qualify for PD, taking as a reference the smallest sum of the longest dimensions since the treatment started.
Objective Response Rate (ORR) is defined as the number of patients with confirmed complete or partial responses, expressed as a percentage of all patients treated with SG2000
Time to Progression (TTP) is defined as the period of time from first date of treatment to the date that the patient is withdrawn because of clinical or imaging-based progressive disease, or death from any cause (including euthanasia).
“Duration of Response” is defined for patients with an objective response only.
This patient, diagnosed with multicentric B-cell high grade lymphoma, had been previously treated with 5 protocols. This patient was treated for a first cycle (3 weeks) with IV 1.75 μg/kg SG2000 solution with a single weekly dose. […] The second cycle of treatment followed with IV 2.00 μg/kg SG2000 with a single weekly dose. The third cycle of weekly dosing was begun after a single week break, with doses of 2.00 μg/kg SG2000, 1.75 μg/kg SG2000 and 2.00 μg/kg SG2000.
Patients 2 to 9 were treated as follows, with the stated amount of SG2000 (μg/kg), with a 3 weekly cycle of weekly treatments, and a single break week between cycles.
Patients 2, 4-5 were diagnosed with multicentric B-cell high grade lymphoma, Patients 3, 8 and 9 were diagnosed with multicentric B-cell intermediate grade lymphoma and Patient 6 was diagnosed with multicentric T-cell high grade lymphoma. Patient 7 was diagnosed with multicentric and mediastinal high grade lymphoma, which was suspected to be to be T-cell lymphoma.

[1] = Patient 1, dog, multicentric B-cell high grade lymphoma
[2] = Patient 1, dog, multicentric B-cell high grade lymphoma, IV 1.75-2.00 μg/kg weekly, 3 cycles
[3] = dogs with multicentric lymphoma, Patients 2 to 9, IV 1.5-2 μg/kg weekly

Compound: C=C1C[C@H]2C=Nc3cc(OCCCOc4cc5c(cc4OC)C(=O)N4CC(=C)C[C@H]4C=N5)c(OC)cc3C(=O)N2C1 [SG2000]
- Progression free interval with treatment [1]: 111 days
- Survival time since the start of the SG2000 trial [1]: 126 days
- Patient response at the end of the planned 3 cycles [2]: PD (Progressive disease (PD) is defined as a >20% increase in the sum of the longest dimensions of the target lesions)
- Toxicity at the end of the planned 3 cycles [2]: grade 4 anaemia
- Disease course in the planned three week break after first cycle (Patient 1, dog, multicentric B-cell high grade lymphoma, after first cycle IV 1.75 μg/kg weekly): the disease progressed
- Response during first cycle (Patient 1, dog, multicentric B-cell high grade lymphoma, first cycle (3 weeks) IV 1.75 μg/kg single weekly dose): SD
- Survival time from diagnosis (Patient 1, dog, multicentric B-cell high grade lymphoma, previously treated with 5 protocols): 408 days
- Progression free interval [3]: 10 d (2×) and 56 d and 54 d and 7 d and 158 d and 43 d
- Survival time from SG2000 start [3]: 24 days and 74 days and 16 days and 95 days and 8 days and 195 days and 49 days
- Survival time from diagnosis [3]: 31 days and 186 days and 252 days and 336 days and 141 days and 811 days and 138 days
- Response to SG2000 (dogs with multicentric lymphoma, Patients 2 to 9, IV 1.5-2 μg/kg weekly, 3 weekly cycles): PD (Progressive disease (PD) is defined as a >20% increase in the sum of the longest dimensions of the target lesions) (3×) and SD (2×) and PR (Partial response (PR) is defined as a >30% decrease in the sum of the longest dimensions of the target lesions) (2×) and CR
